In US9902733B2, “Furopyridines as inhibitors of protein kinases” (MASARYKOVA UNIVERZITA, priority 2014, dated 2018):
Where two headings read alike, the source gives them in different places.

Legend:
Format in all cases: biochemical
CLK2 (h) = molecular target: T1, CLK2 (h) (Homo sapiens, UniProt P49760); assay: CLK2 KinaseProfiler radiometric protein kinase assay
T1 construct: purchased Merck Millipore (KinaseProfiler service)
Description: (§1) In vitro essays were performed by the company Merck Millipore in their KinaseProfiler radiometric protein kinase assay as paid commercial service. The compounds IC50 values for inhibition of individual protein kinases were determined. Dose-response curves were plotted from inhibition data generated, each in duplicate, from 10 point serial dilutions of inhibitory compounds. Concentration of compound was plotted against % kinase activity. To generate IC50 values, the dose-response curves were fitted to a standard sigmoidal curve and IC50 values were derived by standard nonlinear regression analysis.
(§2) All tested compounds were prepared in 100% DMSO to final assay concentrations either 0.5 mM (for the concentration row A, see below) or 0.05 mM (for the concentration row B). This working stock of the compound was added to the assay well as the first component in the reaction, followed by the remaining components as detailed below. The stock solution was added to the individual assay wells in such amounts that the concentrations of the compound were either in the row A (0.001 μM, 0.003 μM, 0.01 μM, 0.03 μM, 0.1 μM, 0.3 μM, 1.0 μM, 3.0 μM, and 10.0 μM) or in the row B (0.0001 μM, 0.0003 μM, 0.001 μM, 0.003 μM, 0.01 μM, 0.03 μM, 0.1 μM, 0.3 μM, and 1.0 μM). There was no pre-incubation step between the compound and the kinase prior to initiation of the reaction.
(§3) The positive control wells contained all components of the reaction, except the compound of interest; however, DMSO (at a final concentration of 2%) was included in these wells to control for solvent effects. The blank wells contained all components of the reaction, with staurosporine as a reference inhibitor replacing the compound of interest. This abolished kinase activity and established the base-line (0% kinase activity remaining).
CLK2 (h) was diluted in the buffer (20 mM MOPS (3-(N-morpholino)propanesulfonic acid), 1 mM EDTA (ethylendiaminotetraacetic acid), 0.01% Brij-35 (detergent), 5% Glycerol, 0.1% β-mercaptoethanol, 1 mg/mL BSAs) to the concentration of 1.01 mg/mL prior to addition to the reaction mix.
(§4) The above stock solution of CLK2(h) was added to a mixture containing 8 mM MOPS pH 7.0, 0.2 mM EDTA, and 20 μM […](p) EDEEE in such amount that the resulting concentration of CLK2(h) was 2.1 nM. This mixture was added to the stock solution of the tested compound. The reaction was initiated by the addition of the MgATP mix in such amount that the resulting concentration of Mg acetate in the reaction mixture was 10 mM and [γ-^33P-ATP] (specific activity approx. 500 cpm/pmol) was 15 μM. After incubation for 40 minutes at room temperature, the reaction was stopped by the addition of 3% phosphoric acid solution. 10 μL of the reaction was then spotted onto a P30 filtermat and washed three times for 5 minutes in 75 mM phosphoric acid and once in methanol prior to drying and scintillation counting.

DYRK2 = molecular target: T2, DYRK2 (Homo sapiens, UniProt Q92630); assay: DYRK2 KinaseProfiler radiometric protein kinase assay
T2 construct: purchased Merck Millipore (KinaseProfiler service)
T2 sequence (Q92630 1-601): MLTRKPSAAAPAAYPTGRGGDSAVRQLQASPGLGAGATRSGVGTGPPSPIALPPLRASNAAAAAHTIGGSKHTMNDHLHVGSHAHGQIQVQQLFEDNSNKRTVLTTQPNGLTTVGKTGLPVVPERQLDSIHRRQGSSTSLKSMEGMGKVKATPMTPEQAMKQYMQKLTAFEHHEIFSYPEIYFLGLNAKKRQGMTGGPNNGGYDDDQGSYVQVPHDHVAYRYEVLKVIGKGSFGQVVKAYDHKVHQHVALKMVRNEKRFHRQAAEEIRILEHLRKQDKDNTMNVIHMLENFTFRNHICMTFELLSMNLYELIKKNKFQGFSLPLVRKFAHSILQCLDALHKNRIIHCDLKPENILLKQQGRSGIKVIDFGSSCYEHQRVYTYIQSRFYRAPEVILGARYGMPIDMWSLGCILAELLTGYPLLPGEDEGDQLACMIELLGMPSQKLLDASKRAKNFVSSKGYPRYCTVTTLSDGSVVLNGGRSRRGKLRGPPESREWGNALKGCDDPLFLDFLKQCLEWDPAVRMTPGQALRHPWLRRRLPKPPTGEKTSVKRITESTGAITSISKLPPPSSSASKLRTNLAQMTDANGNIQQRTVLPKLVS
Description: as §1, §2, §3

HIPK1(h) = molecular target: T3, HIPK1(h) (Homo sapiens, UniProt Q86Z02); assay: HIPK1 KinaseProfiler radiometric protein kinase assay; details: 45 μM ATP, 40 minutes at room temperature
T3 construct: purchased Merck Millipore (KinaseProfiler service)
T3 sequence (Q86Z02 whole entry): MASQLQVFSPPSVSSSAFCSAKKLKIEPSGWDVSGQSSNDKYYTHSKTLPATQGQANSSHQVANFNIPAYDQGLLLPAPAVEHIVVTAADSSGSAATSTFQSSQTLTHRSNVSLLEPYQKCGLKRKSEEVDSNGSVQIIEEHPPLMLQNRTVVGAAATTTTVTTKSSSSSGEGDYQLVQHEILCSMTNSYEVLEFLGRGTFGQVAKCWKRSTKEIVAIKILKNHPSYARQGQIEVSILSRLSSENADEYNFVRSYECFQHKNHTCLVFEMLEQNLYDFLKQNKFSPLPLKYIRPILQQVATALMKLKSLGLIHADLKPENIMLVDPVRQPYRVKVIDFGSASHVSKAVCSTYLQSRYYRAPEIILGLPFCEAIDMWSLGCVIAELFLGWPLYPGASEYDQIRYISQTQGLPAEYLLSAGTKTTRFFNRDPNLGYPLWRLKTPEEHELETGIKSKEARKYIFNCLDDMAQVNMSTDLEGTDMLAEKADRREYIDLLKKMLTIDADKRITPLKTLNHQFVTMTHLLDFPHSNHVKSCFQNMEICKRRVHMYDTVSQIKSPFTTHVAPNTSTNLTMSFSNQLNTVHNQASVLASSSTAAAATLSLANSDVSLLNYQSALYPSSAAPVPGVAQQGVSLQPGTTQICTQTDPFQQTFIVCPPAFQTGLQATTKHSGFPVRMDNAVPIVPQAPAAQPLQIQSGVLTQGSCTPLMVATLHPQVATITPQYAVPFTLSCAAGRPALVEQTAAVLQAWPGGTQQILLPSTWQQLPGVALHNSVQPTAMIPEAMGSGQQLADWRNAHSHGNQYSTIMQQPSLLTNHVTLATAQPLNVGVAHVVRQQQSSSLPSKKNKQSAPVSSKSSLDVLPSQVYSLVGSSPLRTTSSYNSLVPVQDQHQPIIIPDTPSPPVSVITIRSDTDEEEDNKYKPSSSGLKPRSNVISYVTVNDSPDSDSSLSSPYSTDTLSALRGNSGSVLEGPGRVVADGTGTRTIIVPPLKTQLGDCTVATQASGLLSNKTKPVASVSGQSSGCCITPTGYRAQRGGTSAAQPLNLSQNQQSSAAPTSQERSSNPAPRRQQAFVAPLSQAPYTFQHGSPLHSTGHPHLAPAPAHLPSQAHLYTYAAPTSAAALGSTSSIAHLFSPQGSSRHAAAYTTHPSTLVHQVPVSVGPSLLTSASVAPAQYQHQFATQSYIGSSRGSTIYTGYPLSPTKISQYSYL
Description: as §1, §2, §3
HIPK1(h) was diluted in the buffer (20 mM MOPS, 1 mM EDTA, 0.01% Brij-35, 5% Glycerol, 0.1% β-mercaptoethanol, 1 mg/mL BSAs) to the concentration of 1.01 mg/mL prior to addition to the reaction mix.
(§5) The above stock solution of HIPK1(h) was added to a mixture containing 8 mM MOPS pH 7.0, 0.2 mM EDTA, and 0.33 mg/mL myelin basic protein in such amount that the resulting concentration of HIPK1(h) was 4.7 nM. This mixture was added to the stock solution of the tested compound. The reaction was initiated by the addition of the MgATP mix in such amount that the resulting concentration of Mg acetate in the reaction mixture was 10 mM and [γ-^33P-ATP] (specific activity approx. 500 cpm/pmol) was 45 μM. After incubation for 40 minutes at room temperature, the reaction was stopped by the addition of 3% phosphoric acid solution. 10 μL of the reaction was then spotted onto a P30 filtermat and washed three times for 5 minutes in 75 mM phosphoric acid and once in methanol prior to drying and scintillation counting.

HIPK2(h) = molecular target: T4, HIPK2(h) (Homo sapiens, UniProt Q9H2X6); assay: HIPK2 KinaseProfiler radiometric protein kinase assay; details: 10 μM ATP, 40 minutes at room temperature
T4 construct: purchased Merck Millipore (KinaseProfiler service)
T4 sequence (Q9H2X6 whole entry): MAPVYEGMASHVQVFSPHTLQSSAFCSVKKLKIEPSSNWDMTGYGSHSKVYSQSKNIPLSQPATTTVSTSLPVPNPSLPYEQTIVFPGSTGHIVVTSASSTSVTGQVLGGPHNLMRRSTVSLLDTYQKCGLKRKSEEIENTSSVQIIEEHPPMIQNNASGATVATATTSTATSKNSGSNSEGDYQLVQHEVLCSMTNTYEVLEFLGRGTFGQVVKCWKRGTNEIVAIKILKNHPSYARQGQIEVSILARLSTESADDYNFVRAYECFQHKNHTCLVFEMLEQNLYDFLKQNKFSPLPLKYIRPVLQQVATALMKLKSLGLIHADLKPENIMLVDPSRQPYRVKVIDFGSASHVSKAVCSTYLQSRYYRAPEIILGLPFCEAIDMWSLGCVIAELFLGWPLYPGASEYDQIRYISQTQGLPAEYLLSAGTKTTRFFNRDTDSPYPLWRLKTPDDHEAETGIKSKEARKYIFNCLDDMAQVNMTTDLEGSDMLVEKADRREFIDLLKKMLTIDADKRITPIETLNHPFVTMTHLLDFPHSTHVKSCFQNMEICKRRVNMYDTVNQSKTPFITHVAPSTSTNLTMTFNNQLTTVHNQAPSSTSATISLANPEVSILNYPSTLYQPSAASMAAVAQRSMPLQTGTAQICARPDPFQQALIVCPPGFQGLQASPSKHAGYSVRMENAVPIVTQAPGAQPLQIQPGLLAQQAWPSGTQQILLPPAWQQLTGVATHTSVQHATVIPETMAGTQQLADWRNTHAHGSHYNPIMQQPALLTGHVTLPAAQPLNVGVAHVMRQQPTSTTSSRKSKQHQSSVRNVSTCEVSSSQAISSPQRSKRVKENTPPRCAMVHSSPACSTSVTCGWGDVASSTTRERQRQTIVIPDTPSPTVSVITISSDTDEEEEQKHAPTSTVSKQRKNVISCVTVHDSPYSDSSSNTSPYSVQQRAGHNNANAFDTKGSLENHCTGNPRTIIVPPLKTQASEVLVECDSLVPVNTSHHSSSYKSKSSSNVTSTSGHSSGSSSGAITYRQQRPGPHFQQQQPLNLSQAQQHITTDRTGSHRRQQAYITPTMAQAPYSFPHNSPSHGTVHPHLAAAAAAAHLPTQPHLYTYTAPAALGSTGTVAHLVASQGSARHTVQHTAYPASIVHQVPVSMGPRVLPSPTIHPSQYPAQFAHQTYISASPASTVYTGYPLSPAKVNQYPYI
Description: as §1, §2, §3
HIPK2(h) was diluted in the buffer (20 mM MOPS, 1 mM EDTA, 0.01% Brij-35, 5% Glycerol, 0.1% β-mercaptoethanol, 1 mg/mL BSAs) to the concentration of 1.01 mg/mL prior to addition to the reaction mix.
as §5, with “HIPK2(h)” for “HIPK1(h)”, “1.4” for “4.7”, “10” for “45”

CLK4 (h) = molecular target: T5, CLK4 (h) (Homo sapiens, UniProt Q9HAZ1); assay: CLK4 KinaseProfiler radiometric protein kinase assay; details: 15 μM ATP, 40 minutes at room temperature
T5 construct: purchased Merck Millipore (KinaseProfiler service)
T5 sequence (Q9HAZ1 whole entry): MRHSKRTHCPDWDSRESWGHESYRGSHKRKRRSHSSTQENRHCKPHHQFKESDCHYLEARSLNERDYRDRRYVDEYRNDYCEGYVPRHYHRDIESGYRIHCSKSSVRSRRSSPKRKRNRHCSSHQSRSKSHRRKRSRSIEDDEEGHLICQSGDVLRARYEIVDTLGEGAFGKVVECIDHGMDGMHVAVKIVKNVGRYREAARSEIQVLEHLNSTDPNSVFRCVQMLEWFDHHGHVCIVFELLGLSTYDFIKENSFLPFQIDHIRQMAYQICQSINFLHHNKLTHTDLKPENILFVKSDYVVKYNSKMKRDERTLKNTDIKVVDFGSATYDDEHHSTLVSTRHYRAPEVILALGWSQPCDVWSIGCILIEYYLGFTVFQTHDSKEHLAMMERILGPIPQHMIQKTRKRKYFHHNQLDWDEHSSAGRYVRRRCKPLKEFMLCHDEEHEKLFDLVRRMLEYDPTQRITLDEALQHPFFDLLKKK
Description: as §1, §2, §3
CLK4 (h) was diluted in the buffer (20 mM MOPS, 1 mM EDTA, 0.01% Brij-35, 5% Glycerol, 0.1% β-mercaptoethanol, 1 mg/mL BSAs) to the concentration of 1.01 mg/mL prior to addition to the reaction mix.
as §4, with “CLK4(h)” for “CLK2(h)”, “200” for “20”, “140.8” for “2.1”

[1] = radiometric, 15 μM ATP, 40 minutes at room temperature, read-out: CLK2 IC50

T1 sequence (P49760 whole entry): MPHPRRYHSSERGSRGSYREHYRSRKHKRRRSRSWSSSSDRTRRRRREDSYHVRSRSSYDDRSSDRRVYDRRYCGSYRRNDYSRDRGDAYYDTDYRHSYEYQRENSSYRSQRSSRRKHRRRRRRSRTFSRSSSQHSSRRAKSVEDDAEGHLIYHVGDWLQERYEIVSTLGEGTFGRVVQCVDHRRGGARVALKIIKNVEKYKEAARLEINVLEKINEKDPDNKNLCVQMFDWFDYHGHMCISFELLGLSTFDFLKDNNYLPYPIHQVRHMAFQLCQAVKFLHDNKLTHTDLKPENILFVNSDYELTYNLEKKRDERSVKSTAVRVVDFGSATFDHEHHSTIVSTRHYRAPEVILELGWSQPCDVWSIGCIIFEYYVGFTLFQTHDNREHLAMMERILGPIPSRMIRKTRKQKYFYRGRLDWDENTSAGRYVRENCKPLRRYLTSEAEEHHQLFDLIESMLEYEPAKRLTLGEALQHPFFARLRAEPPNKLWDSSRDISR

Structure (SMILES)	IC50 (CLK2 (h); [1]) [nM]	IC50 (DYRK2) [nM]	IC50 (HIPK1(h)) [nM]	IC50 (HIPK2(h)) [nM]	IC50 (CLK4 (h)) [nM]	IC50 (CLK2 (h)) [nM]
c1ccc2cc(-c3coc4ccc(-c5cncs5)nc34)ccc2c1 [Preparative Example 7F]	< 1000	–	< 1000	< 100	< 1000	–
Cc1cc2occ(-c3ccc4ccccc4c3)c2nc1-c1cnn(C)c1 [Preparative Example 80]	< 1000	–	–	–	–	–
Cn1cc(-c2ccc3occ(-c4ccc(-c5nnn[nH]5)cc4)c3n2)cn1 [Preparative Example 81]	< 5000	< 5000	< 5000	–	–	–
CCc1coc2ccc(-c3cnn(C)c3)nc12 [Preparative Example 23]	< 1000	< 5000	–	–	< 1000	–
CC(C)(C)c1coc2ccc(-c3cn[nH]c3)nc12 [Preparative Example 55]	< 1000	–	–	–	< 1000	–
c1ccc2cc(-c3coc4ccc(-c5cnoc5)nc34)ccc2c1 [Preparative Example 62]	< 5000	–	< 1000	< 1000	< 5000	–
CC(C)(C)c1ccc(-c2coc3ccc(-c4cn[nH]c4)nc23)cc1 [Preparative Example 54]	–	–	< 1000	< 1000	< 5000	< 5000
Cn1cc(-c2ccc3occc3n2)cn1 [Preparative Example 12B]	< 5000	–	–	–	< 1000	–

Other lines, results leading:

IC50 (CLK2 (h); [1]) [nM]	IC50 (DYRK2) [nM]	IC50 (HIPK1(h)) [nM]	IC50 (HIPK2(h)) [nM]	IC50 (CLK4 (h)) [nM]	IC50 (CLK2 (h)) [nM]	Structure (SMILES)
< 1000	< 5000	< 1000	–	–	–	Cn1cc(-c2ccc3occ(-c4ccc(C(N)=O)cc4)c3n2)cn1 [Preparative Example 66]
< 1000	< 5000	< 5000	–	–	–	Cn1cc(-c2ccc3occ(-c4ccc(S(C)(=O)=O)cc4)c3n2)cn1 [Preparative Example 71]
< 100	< 5000	< 1000	< 100	< 100	–	Cn1cc(-c2ccc3occ(-c4cccc(-c5ccccc5)c4)c3n2)cn1 [Preparative Example 61]
< 5000	< 5000	–	–	–	–	Cn1cc(-c2ccc3occ(-c4ccc([S+](C)[O-])cc4)c3n2)cn1 (stereo not drawn) [Preparative Example 73]
< 1000	–	< 5000	–	–	–	Cn1cc(-c2ccc3occ(-c4cccc(C(C)(C)C)c4)c3n2)cn1 [Preparative Example 74]
< 1000	< 5000	< 1000	–	–	–	Cn1cc(-c2ccc3occ(-c4ccc(CO)cc4)c3n2)cn1 [Preparative Example 70]
< 5000	–	< 5000	< 5000	< 1000	–	c1ccc(-c2coc3ccc(-c4cccnc4)nc23)cc1 [Preparative Example 6D]
< 100	< 1000	< 1000	–	–	–	Cn1cc(-c2ccc3occ(-c4ccc5cn[nH]c5c4)c3n2)cn1 [Preparative Example 65]
< 5000	–	–	< 5000	< 5000	–	CC(C)n1cc(-c2ccc3occ(-c4ccc5ccccc5c4)c3n2)cn1 [Preparative Example 7C]
